Results published in US9352013B2, “Uses of bremelanotide in therapy for female sexual dysfunction” (Palatin Technologies, Inc., priority 2012, dated 2016).
Entries after “also recorded” stand apart in the source; their conditions may differ.

Columns and labels:
Type in all cases: in vivo, human
[1] = test system: premenopausal females with FSAD and/or HSDD; assay: Example 1: placebo-controlled at-home trial of subcutaneous bremelanotide, efficacy (SSEs, FSFI, FSDS-DAO)
Protocol: (§1) A multi-centered, placebo-controlled, randomized, parallel group trial with fixed dose levels and designed to identify appropriate doses of bremelanotide administered by subcutaneous injection in premenopausal females with FSAD and/or HSDD, under the conditions of home use, was conducted. Subjects received a single dose of placebo (subject-blinded) in-clinic followed by 4 weeks of subject-blinded placebo treatment at home (subjects self-administered treatment as needed). Subjects who continued to qualify for the trial then received 2 single in-clinic doses of randomized treatment (double-blind; approximately one week apart), followed by 12 weeks of double-blind treatment at home (subjects self-administered treatment as needed).
Subjects were randomized (1:1:1:1) to one of four study treatment groups (placebo or doses with 0.75, 1.25, or 1.75 mg net weight bremelanotide). Randomization occurred immediately prior to the first in-clinic dose of double-blind treatment. Study drug and placebo was provided as pre-filled syringes in 0.3 mL volume, with subjects instructed on self-administration into the anterior thigh or abdomen.
Enrolled subjects were premenopausal women who met the diagnostic criteria for FSAD, HSDD, or mixed FSAD/HSDD, utilizing a diagnostic screening guide including categorization of the sexual dysfunction as both acquired (vs. lifelong) and generalized (vs. situational). Subjects enrolled had previously been sexually “functional;” that is, experienced sexual arousal during sexual activity and/or a normal level of desire at some point in the past for a period of at least 2 years.
Enrolled subjects were provided with an electronic diary system (eDiary) with instructions to complete an FSEP-R questionnaire with each sexual encounter. At selected in-clinic visits, subjects completed other assessment questionnaires, including SIDI-F, FSDS-DAO, FSFI, GAQ and WITS-9. In addition, various vital sign measures were conducted and blood and urine samples collected at selected in-clinic visits.
The measurement period was defined as the number of events during the last four weeks of treatment minus the number of events during the baseline period, with outcomes reported for pooled results of women taking the two highest bremelanotide dose levels versus placebo.
The FSFI is a 19-item questionnaire which provides for an additional measurement of changes over a longer recall period. • FSFI total score improvement (mean change of 3.55 vs. 1.88, p=0.0017) • Reduced associated distress related to sexual dysfunction, as measured by the Female Sexual Distress Scale-DAO (FSDS-DAO). The FSDS-DAO 15-item questionnaire is designed to assess and quantify the change in personal distress associated with FSD. • FSDS-DAO total score improvement (mean change of −11.1 vs. −6.8, p=0.036).

[2] = Example 1: adverse events and discontinuations; conditions: for Adverse event leading to withdrawal: Flushing, subjects (%) / Adverse event leading to withdrawal: Hypertension, subjects (%) / Adverse event leading to withdrawal: Nausea, subjects (%) / Adverse event leading to withdrawal: Vomiting, subjects (%) / Adverse event: Any leading to withdrawal, subjects (%) / Adverse event: Any, subjects (%) / Adverse event: Flushing, subjects (%) / Adverse event: Headache, subjects (%) / Adverse event: Injection-site pain, subjects (%) / Adverse event: Injection-site pruritus, subjects (%) / Adverse event: Nausea, subjects (%) / Adverse event: Upper respiratory tract infection, subjects (%): double-blind treatment
Protocol: as §1
Bremelanotide was well-tolerated during the trial. The most common types of treatment-emergent adverse events reported more frequently in the bremelanotide arms were facial flushing, nausea, emesis and headache. The study dosed 395 patients. A total of 26 patients discontinued from the study based on preset blood pressure change criterion spread across all arms (N=26, Placebo: 6, bremelanotide arms—0.75 mg: 4, 1.25 mg: 9, 1.75 mg: 7). A total of 19 patients discontinued from the study based on adverse events spread across all arms (N=19, Placebo: 5, bremelanotide arms—0.75 mg: 2, 1.25 mg: 4, 1.75 mg: 8). The adverse events that most commonly lead to discontinuation (other than meeting the blood pressure criterion) were flushing, nausea and emesis. Based on a safety review by an independent Data Safety Monitoring Board, no significant safety issues or concerns were identified during the study. […] Adverse events during the double-blind treatment period are shown on Table 6 below.

[3] = test system: premenopausal and postmenopausal women with FSAD; assay: Phase 2 intranasal trials in women with FSAD: efficacy and adverse events
Protocol: In the bremelanotide premenopausal arm, 42.5% of the subjects were discontinued due to hypertension, nausea, vomiting or myalgia. Subjects received a 10 mg intranasal dose of bremelanotide, with premenopausal subjects determined to have a mean plasma concentration of 88.5±51.9 ng/mL and a % CV of 58.6, and postmenopausal subjects determined to have a mean plasma concentration of 93.2±68.5 ng/mL and a % CV of 73.5. The minimum and maximum plasma concentration levels for all women at thirty minutes post dose range from 0.0 ng/mL to 207.0 ng/mL.
Results with premenopausal women in a placebo-controlled, randomized, double-blind, parallel group, at-home exploratory study to evaluate the efficacy and safety of intranasally administered bremelanotide in subjects with female sexual arousal disorder (FSAD) were compared against results in the study of Example 1. In the intranasal study, a total of 76 premenopausal subjects were randomized, with 40 subjects to receive bremelanotide and 36 to receive placebo. Twenty-two subjects treated with bremelanotide and 29 treated with placebo completed the study, with 16 subjects who received bremelanotide (40%) discontinuing from the study due to an adverse event. This compares to the study of Example 1, in which as shown by Table 6 only 8% of subjects on the 1.75 mg subcutaneous dose discontinuing due to an adverse event.

With CCCC[C@H](NC(C)=O)C(=O)N[C@H]1CC(=O)NCCCC[C@@H](C(=O)O)NC(=O)[C@H](Cc2c[nH]c3ccccc23)NC(=O)[C@H](CCCNC(=N)N)NC(=O)[C@@H](Cc2ccccc2)NC(=O)[C@H](Cc2c[nH]cn2)NC1=O [bremelanotide, Ac-Nle-cyclo(-Asp-His-D-Phe-Arg-Trp-Lys)-OH] the “Frequency of Satisfying Sexual Events (SSEs), mean at end of study” value ([1]; pooled 1.25 mg and 1.75 mg SC, from 1.6 at baseline, placebo 1.7 to 1.9) was 2.4, the “FSFI total score improvement, mean change from baseline to end of study” value ([1]; pooled 1.25 mg and 1.75 mg SC, placebo 1.88) was 3.55 and the “FSDS-DAO total score improvement, mean change from baseline to end of study” value ([1]; pooled 1.25 mg and 1.75 mg SC, placebo −6.8) was −11.1. The “Increase in SSEs” value ([1]; pooled 1.25 mg and 1.75 mg SC, versus 12% with placebo) was 50%, the “Efficacy in premenopausal women with FSDs” value ([1]; self-administered at home at 1.25 and 1.75 mg SC) was “effective in decreasing distress, increasing arousal and desire, and increasing the number of SSEs” and the “Percentage of women with end-of-study FSFI and FSDS-DAO total score levels above 26.5 and 18” value ([1]; versus placebo, exploratory analysis) was “higher percentage”. For the same compound, the “Patients discontinued based on adverse events” value (“Patients discontinued based” for short) ([2]; 0.75 mg SC) was 2, the “Patients discontinued on preset blood pressure change criterion” value ([2]; 0.75 mg SC) was 4 and the “Adverse event leading to withdrawal: Flushing, subjects (%)” value ([2]; 0.75 mg SC (N = 100)) was 0. The “Adverse event leading to withdrawal: Hypertension, subjects (%)” value ([2]; 0.75 mg SC (N = 100)) was 2 (2%), the “Adverse event leading to withdrawal: Nausea, subjects (%)” value ([2]; 0.75 mg SC (N = 100)) was 0 and the “Adverse event leading to withdrawal: Vomiting, subjects (%)” value ([2]; 0.75 mg SC (N = 100)) was 0. The “Adverse event: Any leading to withdrawal, subjects (%)” value (“Adverse event: Any leading … (%)” below) ([2]; 0.75 mg SC (N = 100)) was 2 (2%), the “Adverse event: Any, subjects (%)” value ([2]; 0.75 mg SC (N = 100)) was 64 (64%) and the “Adverse event: Flushing, subjects (%)” value ([2]; 0.75 mg SC (N = 100)) was 17 (17%). For the same compound, the “Adverse event: Headache, subjects (%)” value ([2]; 0.75 mg SC (N = 100)) was 9 (9%), the “Adverse event: Injection-site pain, subjects (%)” value ([2]; 0.75 mg SC (N = 100)) was 6 (6%) and the “Adverse event: Injection-site pruritus, subjects (%)” value ([2]; 0.75 mg SC (N = 100)) was 4 (4%). For the same compound, the “Adverse event: Nausea, subjects (%)” value ([2]; 0.75 mg SC (N = 100)) was 18 (18%), the “Adverse event: Upper respiratory tract infection, subjects (%)” value ([2]; 0.75 mg SC (N = 100)) was 8 (8%) and the “Patients discontinued based” value ([2]; 1.25 mg SC) was 4. The “Patients discontinued on preset blood pressure change criterion” value ([2]; 1.25 mg SC) was 9, the “Adverse event leading to withdrawal: Flushing, subjects (%)” value ([2]; 1.25 mg SC (N = 99)) was 1 (1%) and the “Adverse event leading to withdrawal: Hypertension, subjects (%)” value ([2]; 1.25 mg SC (N = 99)) was 0. For the same compound, the “Adverse event leading to withdrawal: Nausea, subjects (%)” value ([2]; 1.25 mg SC (N = 99)) was 0, the “Adverse event leading to withdrawal: Vomiting, subjects (%)” value ([2]; 1.25 mg SC (N = 99)) was 1 (1%) and the “Adverse event: Any leading … (%)” value ([2]; 1.25 mg SC (N = 99)) was 4 (4%). The “Adverse event: Any, subjects (%)” value ([2]; 1.25 mg SC (N = 99)) was 61 (62%), the “Adverse event: Flushing, subjects (%)” value ([2]; 1.25 mg SC (N = 99)) was 14 (14%) and the “Adverse event: Headache, subjects (%)” value ([2]; 1.25 mg SC (N = 99)) was 9 (9%). The “Adverse event: Injection-site pain, subjects (%)” value ([2]; 1.25 mg SC (N = 99)) was 6 (6%), the “Adverse event: Injection-site pruritus, subjects (%)” value ([2]; 1.25 mg SC (N = 99)) was 4 (4%) and the “Adverse event: Nausea, subjects (%)” value ([2]; 1.25 mg SC (N = 99)) was 22 (22%). For the same compound, the “Adverse event: Upper respiratory tract infection, subjects (%)” value ([2]; 1.25 mg SC (N = 99)) was 5 (5%), the “Patients discontinued based” value ([2]; 1.75 mg SC) was 8 and the “Patients discontinued on preset blood pressure change criterion” value ([2]; 1.75 mg SC) was 7. The “Adverse event leading to withdrawal: Flushing, subjects (%)” value ([2]; 1.75 mg SC (N = 98)) was 1 (1%), the “Adverse event leading to withdrawal: Hypertension, subjects (%)” value ([2]; 1.75 mg SC (N = 98)) was 1 (1%) and the “Adverse event leading to withdrawal: Nausea, subjects (%)” value ([2]; 1.75 mg SC (N = 98)) was 3 (3%). The “Adverse event leading to withdrawal: Vomiting, subjects (%)” value ([2]; 1.75 mg SC (N = 98)) was 3 (3%), the “Adverse event: Any leading … (%)” value ([2]; 1.75 mg SC (N = 98)) was 8 (8%) and the “Adverse event: Any, subjects (%)” value ([2]; 1.75 mg SC (N = 98)) was 67 (68%). The “Adverse event: Flushing, subjects (%)” value ([2]; 1.75 mg SC (N = 98)) was 17 (17%), the “Adverse event: Headache, subjects (%)” value ([2]; 1.75 mg SC (N = 98)) was 14 (14%) and the “Adverse event: Injection-site pain, subjects (%)” value ([2]; 1.75 mg SC (N = 98)) was 7 (7%). The “Adverse event: Injection-site pruritus, subjects (%)” value ([2]; 1.75 mg SC (N = 98)) was 6 (6%), the “Adverse event: Nausea, subjects (%)” value ([2]; 1.75 mg SC (N = 98)) was 24 (24%) and the “Adverse event: Upper respiratory tract infection, subjects (%)” value ([2]; 1.75 mg SC (N = 98)) was 4 (4%). The “Tolerability during the trial” value ([2]; 0.75-1.75 mg SC) was “generally well tolerated”, the “Serious adverse events related to treatment” value ([2]; Example 1 study) was “none were considered related; also recorded: no serious adverse events” and the “Subjects reporting at least one adverse event” value ([3]; 10 mg intranasal, postmenopausal, placebo 47.7%) was 100%. For the same compound, the “Subjects discontinuing from the study due to an adverse event” value ([3]; 10 mg intranasal, premenopausal, 16 of 40 subjects) was 40% and the “Sexual desire and arousal compared to placebo” value ([3]; intranasal, premenopausal and postmenopausal women with FSAD) was “increase sexual desire and arousal compared to placebo”.
